Source: the CheMixHub ionic liquid set

Experiment: xn = mol fraction of the nth substance listed

CC(=O)[O-].[NH4+] + CC(=O)[O-].CC[n+]1ccn(C)c1
101 kPa
Details | electrical conductivity [S/m] | viscosity [mPa·s]
298.15 K, x1 = 0.4491 | 0.0734 | 1020
308.15 K, x1 = 0.328 | 0.215 | 273
308.15 K, x1 = 0.4491 | 0.148 | 458
313.15 K, x1 = 0.0999 | 0.494 | 76.2
313.15 K, x1 = 0.1703 | 0.41 | 101.3
313.15 K, x1 = 0.328 | 0.286 | 197
318.15 K, x1 = 0.2498 | 0.449 | 106.6
318.15 K, x1 = 0.328 | 0.371 | 144.6

C[P+](c1ccccc1)(c1ccccc1)c1ccccc1.[Br-] + OCCO
Details | viscosity [mPa·s]
298.15 K, 100 kPa, x1 = 0.1 | 35
298.2 K, 101 kPa, x1 = 0.2 | 121
303.15 K, 100 kPa, x1 = 0.33 | 116.5
303.15 K, 100 kPa, x2 = 0.8333 | 56.5
303.15 K, 100 kPa, x2 = 0.9091 | 30.5
303.15 K, 100 kPa, x2 = 0.9756 | 17.6
313.15 K, 100 kPa, x1 = 0.1 | 18.24
313.15 K, 100 kPa, x1 = 0.33 | 65.5
313.15 K, 100 kPa, x2 = 0.9756 | 13
323.15 K, 100 kPa, x2 = 0.9756 | 9.5
323.15 K, 101 kPa, x1 = 0.25 | 31.72
333.15 K, 100 kPa, x2 = 0.9756 | 7.5
343.15 K, 100 kPa, x2 = 0.9756 | 6
353.15 K, 100 kPa, x2 = 0.9756 | 5.1

CCCCCCCCCC(=O)O + CCCC[N+](CCCC)(CCCC)CCCC.[Cl-]
100 kPa
Details | electrical conductivity, x2 = 0.25 [S/m] | viscosity, x2 = 0.25 [mPa·s] | viscosity, x2 = 0.333 [mPa·s]
293.15 K | 0.00575 | 201 | –
303.15 K | 0.00886 | 135 | –
313.15 K | 0.0133 | 93.3 | 155
323.15 K | 0.0194 | 65.9 | –
333.15 K | 0.0277 | 47.5 | –
343.15 K | – | – | 39.5

N[C@@H](Cc1ccccc1)C(=O)O + CCCC[n+]1ccn(C)c1.[Br-] + O
viscosity [mPa·s], 101.3 kPa
Details | x1 = 0.0003605, x2 = 0 | x1 = 0.0007251, x2 = 0 | x1 = 0.001079, x2 = 0 | x1 = 0.001441, x2 = 0 | x1 = 0.001797, x2 = 0 | x1 = 0.00216, x2 = 0 | x1 = 0.002516, x2 = 0
293.15 K | 1.01 | 1.02 | 1.03 | 1.05 | 1.06 | 1.08 | 1.09
298.15 K | 0.8 | 0.81 | 0.83 | 0.84 | 0.85 | 0.87 | 0.88
303.15 K | 0.71 | 0.72 | 0.74 | 0.75 | 0.76 | 0.78 | 0.79
308.15 K | 0.63 | 0.64 | 0.66 | 0.67 | 0.68 | 0.7 | 0.71
313.15 K | 0.57 | 0.58 | 0.59 | 0.6 | 0.62 | 0.63 | 0.64

CCOCC[n+]1ccn(CCC#N)c1.O=S(=O)([N-]S(=O)(=O)C(F)(F)F)C(F)(F)F + CS(C)=O
101.3 kPa
Details | electrical conductivity [S/m] | viscosity [mPa·s]
293.15 K, x1 = 0.0989 | 0.00113 | –
293.15 K, x1 = 0.1981 | 0.00401 | –
293.15 K, x1 = 0.2776 | 0.00964 | –
293.15 K, x1 = 0.597 | 0.0383 | 59.7
293.15 K, x1 = 0.798 | – | 102.3
293.15 K, x1 = 0.89 | 0.0703 | 210.3
303.15 K, x1 = 0.0989 | 0.00132 | –
303.15 K, x1 = 0.1981 | 0.00478 | –
303.15 K, x1 = 0.721 | 0.0577 | 40.7
313.15 K, x1 = 0.0989 | 0.00155 | –
313.15 K, x1 = 0.1981 | 0.00607 | –
323.15 K, x1 = 0.0989 | 0.00196 | 3.457
323.15 K, x1 = 0.1981 | 0.00772 | 4.04
323.15 K, x1 = 0.3971 | 0.0389 | 9.78
323.15 K, x1 = 0.5029 | 0.0621 | 13.05
323.15 K, x1 = 0.721 | 0.108 | 20.71

C1CN=C2CCCN2C1 + O=S(=O)([N-]S(=O)(=O)C(F)(F)F)C(F)(F)F.[Li+]
101 kPa, frequency 0 MHz, x1 = 0.8
Details | electrical conductivity [S/m]
338.15 K | 0.0385
368.15 K | 0.152

101 kPa, x1 = 0.8
Details | viscosity [mPa·s]
338.15 K | 236
368.15 K | 37.77

CCCCCCCCCCCCCC[P+](CCCCCC)(CCCCCC)CCCCCC.[Br-] + O
100 kPa, x2 = 0.68
Details | viscosity [mPa·s]
303.15 K | 180.5
353.15 K | 22.85
